For assay [1], the target named is T1, Adrenergic receptor alpha-1 (Rattus norvegicus, UniProt P15823+P23944+P43140).
T1 sequence (P15823 whole entry): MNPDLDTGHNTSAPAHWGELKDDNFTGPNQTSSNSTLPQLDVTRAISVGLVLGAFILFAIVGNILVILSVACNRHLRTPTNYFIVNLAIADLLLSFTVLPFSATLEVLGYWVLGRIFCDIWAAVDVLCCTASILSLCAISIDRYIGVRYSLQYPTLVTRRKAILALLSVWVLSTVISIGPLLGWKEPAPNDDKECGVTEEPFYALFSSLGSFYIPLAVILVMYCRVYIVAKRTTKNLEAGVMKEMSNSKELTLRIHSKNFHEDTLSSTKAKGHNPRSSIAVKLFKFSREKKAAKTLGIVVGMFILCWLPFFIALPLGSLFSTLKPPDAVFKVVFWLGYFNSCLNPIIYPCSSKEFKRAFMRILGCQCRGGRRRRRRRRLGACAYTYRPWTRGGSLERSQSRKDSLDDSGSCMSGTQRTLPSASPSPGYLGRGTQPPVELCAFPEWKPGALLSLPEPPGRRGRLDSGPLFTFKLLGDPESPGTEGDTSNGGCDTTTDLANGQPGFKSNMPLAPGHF
T1 sequence (P23944 whole entry): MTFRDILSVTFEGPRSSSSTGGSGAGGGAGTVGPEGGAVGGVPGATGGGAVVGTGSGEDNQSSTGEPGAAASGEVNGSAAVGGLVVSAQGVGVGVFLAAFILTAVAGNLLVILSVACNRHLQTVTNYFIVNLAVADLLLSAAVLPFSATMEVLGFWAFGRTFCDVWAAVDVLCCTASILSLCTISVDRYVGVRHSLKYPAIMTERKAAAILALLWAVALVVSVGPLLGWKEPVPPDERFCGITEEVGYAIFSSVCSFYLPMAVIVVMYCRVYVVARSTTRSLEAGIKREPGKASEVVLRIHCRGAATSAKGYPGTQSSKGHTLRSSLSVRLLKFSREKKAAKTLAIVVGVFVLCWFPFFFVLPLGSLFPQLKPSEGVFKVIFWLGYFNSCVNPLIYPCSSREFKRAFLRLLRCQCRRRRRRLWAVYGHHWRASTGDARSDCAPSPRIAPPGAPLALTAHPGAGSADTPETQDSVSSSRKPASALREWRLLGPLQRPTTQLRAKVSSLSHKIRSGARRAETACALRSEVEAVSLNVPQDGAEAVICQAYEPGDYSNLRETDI
T1 sequence (P43140 whole entry): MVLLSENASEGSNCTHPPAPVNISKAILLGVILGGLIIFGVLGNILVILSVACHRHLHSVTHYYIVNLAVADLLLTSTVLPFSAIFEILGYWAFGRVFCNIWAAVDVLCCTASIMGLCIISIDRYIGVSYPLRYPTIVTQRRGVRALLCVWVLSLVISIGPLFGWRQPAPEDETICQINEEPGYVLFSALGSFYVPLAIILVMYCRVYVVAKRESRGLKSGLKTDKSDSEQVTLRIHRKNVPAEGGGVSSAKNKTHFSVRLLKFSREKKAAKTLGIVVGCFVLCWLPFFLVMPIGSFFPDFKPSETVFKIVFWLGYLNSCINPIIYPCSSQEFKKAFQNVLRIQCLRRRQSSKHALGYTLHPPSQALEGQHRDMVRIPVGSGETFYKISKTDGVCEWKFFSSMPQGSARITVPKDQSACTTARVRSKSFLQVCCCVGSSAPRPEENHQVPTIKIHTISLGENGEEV
The assay is described as follows: In vitro binding affinity was measured as the inhibition of [3H]WB-4101 binding to alpha-1 adrenergic receptor of rat cortical membranes. Format: cell membranes, Membrane.

Assay [2] deals with T2, Adrenergic receptor alpha-2 (Rattus norvegicus, UniProt P22086+P19328+P22909).
T2 sequence (P22086 whole entry): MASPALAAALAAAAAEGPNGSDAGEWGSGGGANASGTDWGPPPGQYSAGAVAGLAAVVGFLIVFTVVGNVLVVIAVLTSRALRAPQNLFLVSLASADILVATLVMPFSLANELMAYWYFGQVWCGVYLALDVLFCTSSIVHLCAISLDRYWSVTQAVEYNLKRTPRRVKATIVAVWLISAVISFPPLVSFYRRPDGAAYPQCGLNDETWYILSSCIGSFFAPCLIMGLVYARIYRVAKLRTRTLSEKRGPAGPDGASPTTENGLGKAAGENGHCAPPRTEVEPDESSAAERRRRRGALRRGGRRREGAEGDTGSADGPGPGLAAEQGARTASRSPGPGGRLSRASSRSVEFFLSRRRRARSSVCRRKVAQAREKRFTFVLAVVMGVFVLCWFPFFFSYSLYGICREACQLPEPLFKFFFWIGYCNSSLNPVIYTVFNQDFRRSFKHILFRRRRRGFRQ
T2 sequence (P19328 whole entry): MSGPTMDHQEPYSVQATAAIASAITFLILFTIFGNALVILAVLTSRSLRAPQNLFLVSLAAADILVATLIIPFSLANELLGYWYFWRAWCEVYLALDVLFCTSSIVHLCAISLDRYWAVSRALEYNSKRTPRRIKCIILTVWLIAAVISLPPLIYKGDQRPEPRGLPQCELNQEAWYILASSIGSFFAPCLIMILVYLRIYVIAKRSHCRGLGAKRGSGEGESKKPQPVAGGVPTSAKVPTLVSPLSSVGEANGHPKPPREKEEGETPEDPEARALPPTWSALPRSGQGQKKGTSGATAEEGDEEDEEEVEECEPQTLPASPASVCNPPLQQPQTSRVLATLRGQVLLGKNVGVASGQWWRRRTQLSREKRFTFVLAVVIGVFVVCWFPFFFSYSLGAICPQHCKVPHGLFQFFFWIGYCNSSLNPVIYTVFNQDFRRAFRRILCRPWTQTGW
T2 sequence (P22909 whole entry): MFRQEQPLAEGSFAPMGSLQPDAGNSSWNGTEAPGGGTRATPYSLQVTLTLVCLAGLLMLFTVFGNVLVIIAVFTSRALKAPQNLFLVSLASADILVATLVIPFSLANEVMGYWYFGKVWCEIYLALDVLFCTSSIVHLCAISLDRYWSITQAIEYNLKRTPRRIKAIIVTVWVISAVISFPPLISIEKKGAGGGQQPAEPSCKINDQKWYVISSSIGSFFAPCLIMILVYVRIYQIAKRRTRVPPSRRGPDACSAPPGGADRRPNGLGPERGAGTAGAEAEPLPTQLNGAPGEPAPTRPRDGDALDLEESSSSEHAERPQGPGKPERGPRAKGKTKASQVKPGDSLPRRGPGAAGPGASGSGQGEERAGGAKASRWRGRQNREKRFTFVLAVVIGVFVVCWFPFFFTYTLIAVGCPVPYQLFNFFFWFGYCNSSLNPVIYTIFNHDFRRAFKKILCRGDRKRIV

Assay [3] concerns the target T2, Adrenergic receptor alpha-2. Kind of assay: Inhibition of [3H]idazoxan binding to alpha-2 adrenergic receptor of rat cortical membranes. It counts as cell membranes, Membrane.
In assay [4] the target is Dopamine receptor. Kind of assay: In vitro binding affinity to Dopamine receptors of rat striatal membranes by [3H]spiroperidol displacement.
The target of assay [5] is T2, Adrenergic receptor alpha-2. Kind of assay: In vitro binding affinity was measured as the inhibition of [3H]idazoxan to alpha-2 adrenergic receptors of rat cortical membranes. It counts as cell membranes, Membrane.

Bounds are passed on as bounds.

This is an account of results in ChEMBL document CHEMBL1123334, “4-Amino-6-chloro-2-piperazinopyrimidines with selective affinity for alpha 2-adrenoceptors” (J Med Chem, 1986).

As a reminder, the Ki is a dissociation constant, usually derived from enzyme kinetics or from competition with a known ligand. A higher Ki goes with a looser hold on the target.

`CNc1nc(N2CCN(C)CC2)nc(Cl)c1SC`: the inhibition constant Ki in assay [1] was determined as 1.8 µM; in assay [2] it was 0.36 µM.

`CCNc1nc(N2CCN(C)CC2)nc(Cl)c1SC`: the inhibitory constant (Ki) in assay [1] is 1.8 µM; in assay [2], 0.09 µM.

Take `CSc1c(Cl)nc(N2CCNCC2)nc1NC(C)C`: the inhibitory constant (Ki) amounted to 0.5 µM in assay [1], 0.062 µM in assay [3], 3 µM in assay [4] and 0.036 µM in assay [2].

Take `COc1c(Cl)nc(N2CCN(C)CC2)nc1NC1CCCC1`: the Ki is 1.7 µM in assay [1], 0.029 µM in assay [3], 0.67 µM in assay [4] and 0.05 µM in assay [2].

Regarding `CSc1c(Cl)nc(N2CCN(C)CC2)nc1NC1CCCC1`, the inhibition constant Ki in assay [1] was 0.076 µM; in assay [4] it was 1.2 µM; in assay [2], 0.022 µM.

`CC(C)Nc1cc(Cl)nc(N2CCN(C)CC2)n1`: the inhibition constant (Ki) in assay [1] was greater than 0.18 µM; in assay [5], 0.2 µM; in assay [2], 0.13 µM.

Turning to `CSc1c(Cl)nc(N2CCN(C)CC2)nc1NC(C)(C)C`, the results for the Ki in assay [1], in assay [4] and in assay [2] were 0.45 µM, 0.92 µM and 0.18 µM, respectively.

Consider `CNc1nc(N2CCN(C)CC2)nc(Cl)c1OC`, for which the figures for the inhibition constant (Ki) in assay [1] and in assay [2] were 1.7 µM and 0.15 µM, respectively.

As to `CSc1c(N)nc(N2CCN(C)CC2)nc1Cl`, the Ki in assay [1] came out at 0.82 µM; in assay [4], 1 µM; in assay [2] it was 0.62 µM.

For `CNc1nc(N2CCN(C)CC2)nc(Cl)c1Br`, the Ki in assay [1] was 0.18 µM; in assay [4] it was 0.2 µM; in assay [2], 0.15 µM.

Take `CSc1c(Cl)nc(N2CCN(C)CC2)nc1NCc1ccccc1`: the figures for the Ki in assay [1], in assay [4] and in assay [2] were 0.1 µM, 0.014 µM and 1.5 µM, respectively.

For `Cc1c(Cl)nc(N2CCNCC2)nc1NC(C)C`, the Ki worked out at 0.86 µM in assay [1], 0.013 µM in assay [3], 2.9 µM in assay [4] and 0.006 µM in assay [2].

In the case of `CC(C)Nc1nc(N2CCN(C)CC2)nc(Cl)c1Cl`, the inhibition constant (Ki) in assay [1] came out at 0.042 µM; in assay [5], 0.014 µM; in assay [4], 2.4 µM; in assay [2], 0.005 µM.

For the molecule `CSc1c(Cl)nc(N2CCN(C)CC2)nc1NC1CCCCC1`, the inhibitory constant (Ki) in assay [1] came to 0.24 µM; in assay [2], 0.29 µM.

In the case of `CC(C)Nc1nc(N2CCNCC2)nc(Cl)c1Br`, the inhibitory constant (Ki) came out at 0.2 µM in assay [1], 0.028 µM in assay [3], 0.88 µM in assay [4] and 0.016 µM in assay [2].

Regarding `COc1c(Cl)nc(N2CCN(C)CC2)nc1NC(C)C`, the inhibitory constant (Ki) in assay [1] is 0.31 µM; in assay [2], 0.05 µM.

Regarding `CN1CCN(c2nc(N)c(Cl)c(Cl)n2)CC1`, the Ki in assay [1] was 0.067 µM; in assay [2] it was 0.05 µM.

Turning to `CN1CCN(c2nc(Cl)c(Cl)c(NC3CCCC3)n2)CC1`, the Ki in assay [1] amounted to 0.24 µM; in assay [5], 0.097 µM; in assay [2], 0.12 µM.

Regarding `CNc1nc(N2CCN(C)CC2)nc(Cl)c1Cl`, the inhibitory constant (Ki) worked out at 0.004 µM in assay [1], 1.2 µM in assay [4] and 0.044 µM in assay [2].

Turning to `CC(C)Nc1nc(N2CCN(C)CC2)nc(Cl)c1Br`, the Ki in assay [1] came out at 0.29 µM; in assay [4] it was 0.48 µM; in assay [2] it was 0.007 µM.

Consider `Cc1c(Cl)nc(N2CCN(C)CC2)nc1NC(C)C`, for which the Ki worked out at 0.2 µM in assay [1], 0.88 µM in assay [4] and 0.016 µM in assay [2].

As for `CN1CCN(c2nc(N)c(Br)c(Cl)n2)CC1`, the results for the Ki in assay [1], in assay [4] and in assay [2] were 0.82 µM, 10 µM and 1.6 µM, respectively.

In the case of `CN1CCN(c2nc(Cl)c(Br)c(NC3CCCC3)n2)CC1`, the Ki in assay [1] turned out to be 0.25 µM; in assay [3], 0.23 µM; in assay [2] it was 0.14 µM.

Consider `CSc1c(Cl)nc(N2CCN(C)CC2)nc1NCCc1ccccc1`, for which the inhibition constant Ki in assay [1] was found to be 0.18 µM; in assay [4], 1.4 µM; in assay [2] it was 0.91 µM.

In the case of `CSc1c(Cl)nc(N2CCN(C)CC2)nc1Nc1ccccc1`, the figures for the Ki in assay [1], in assay [3] and in assay [2] were 0.14 µM, 0.5 µM and 0.24 µM, respectively.

With `CNc1cc(Cl)nc(N2CCN(C)CC2)n1`, the Ki in assay [1] is 0.28 µM; in assay [3], 0.1 µM; in assay [4] it was 0.63 µM; in assay [2], 0.05 µM.

For `CSc1c(Cl)nc(N2CCN(C)CC2)nc1NC(C)C`, the results for the inhibitory constant (Ki) in assay [1], in assay [4] and in assay [2] were 0.36 µM, 0.64 µM and 0.026 µM, respectively.

Molecule `Clc1cccc(Cl)c1NC1=NCCN1` [CLONIDINE] yielded an inhibitory constant (Ki) in assay [4] greater than 4 µM.

`CNc1nc(Cl)c(SC)c(N2CCN(C)CC2)n1` [MEZILAMINE]: the Ki came to 0.091 µM in assay [1], 0.012 µM in assay [3] and 0.009 µM in assay [2].

On to `CC(COc1ccccc1)N(CCCl)Cc1ccccc1` (stereo not drawn) [PHENOXYBENZAMINE], for which the inhibition constant Ki was 0.0018 µM in assay [1] and 0.12 µM in assay [4].

With `COC(=O)[C@@H]1[C@H]2C[C@H]3c4[nH]c5ccccc5c4CCN3C[C@@H]2CC[C@@H]1O` [YOHIMBINE], in assay [4], the inhibition constant Ki came out at 2 µM.
